The text below walks through data of ChEMBL document CHEMBL1123119, “Analogues of platelet activating factor (PAF). 2. Some modifications of the glycerine backbone” (J Med Chem, 1985).

Type in all cases: functional
The species entered for one assay is Rattus norvegicus. Kind of assay: Hypotensive activity of compound was determined in hypertensive rats, as dose required to decrease the mean arterial blood pressure 50 mmHg was determined.
Assay [1] is filed under the species Oryctolagus cuniculus. Kind of assay: Maximum platelet aggregation units at 1.9*10e-4 molar concentration was determined.
The species named for assay [2] is Oryctolagus cuniculus. Kind of assay: Effective concentration required to produce 50% of the maximum platelet aggregation using rabbit platelet-rich plasma was determined.
Assay [3] can be described thus: Ratio of MABP to that of platelet EC50 of the compound.
For assay [4], the species on record is Oryctolagus cuniculus. In words: Maximum platelet aggregation units at 5*10e-6 molar concentration was determined.
For assay [5], the species on record is Oryctolagus cuniculus. Kind of assay: Maximum platelet aggregation units at 5*10e-4 molar concentration was determined.
For assay [6], the species on record is Oryctolagus cuniculus. Kind of assay: Maximum platelet aggregation units at 5*10e-5 molar concentration was determined.
Assay [7] is filed under the species Oryctolagus cuniculus. Kind of assay: Maximum platelet aggregation units at 1.3*10e-5 molar concentration was determined.

Structures are written as SMILES.

The EC50 is the concentration at which the effect is half-maximal. Turning to `CCCCCCCCCCCCCCCCOCCC(COP(=O)([O-])OCC[N+](C)(C)C)OC(C)=O` (centres undefined), the Dose in the assay filed under Rattus norvegicus is 0.0243 mg/kg. The compound further gave a Max aggregation response in the assay listed under Oryctolagus cuniculus [1] of 50. This compound also yielded an EC50 in the assay filed under Oryctolagus cuniculus [2] of 1500 nM. For the same compound, in assay [3], the Ratio was found to be 0.16.

As to `CCCCCCCCCCCCCCCCOCC(OC(C)=O)C(C)OP(=O)([O-])OCC[N+](C)(C)C` (centres undefined), the Dose in the assay listed under Rattus norvegicus worked out at 0.0634 mg/kg. In addition, in the assay listed under Oryctolagus cuniculus [1], the Max aggregation response amounted to 70. In addition, the EC50 in the assay listed under Oryctolagus cuniculus [2] was found to be 3200 nM. For the same compound, the Ratio in assay [3] was 0.2.

For `CCCCCCCCCCCCCCCCOCC(CCOP(=O)([O-])OCC[N+](C)(C)C)OC(C)=O` (centres undefined), in the assay filed under Rattus norvegicus, the Dose is 0.0475 mg/kg. The compound also registered a half-maximal effective concentration (EC50) in the assay filed under Oryctolagus cuniculus [2] of 1400 nM. In addition, the Ratio in assay [3] is 0.34. In the assay filed under Oryctolagus cuniculus [4], this compound registered a Max aggregation response of 65.

As to `CCCCCCCCCCCCCCCCOC(C)C(COP(=O)([O-])OCC[N+](C)(C)C)OC(C)=O` (centres undefined), the Dose in the assay filed under Rattus norvegicus is 0.00712 mg/kg. Also, the Max aggregation response in the assay listed under Oryctolagus cuniculus [5] is 65. The response in the assay listed under Oryctolagus cuniculus [2] was half-maximal at 510 nM (EC50). In addition, the Ratio in assay [3] is given as 0.14.

With `CCCCCCCCCCCCCCCCOC(C)(C)C(COP(=O)([O-])OCC[N+](C)(C)C)OC(C)=O` (centres undefined), the Dose in the assay filed under Rattus norvegicus amounted to 0.8757 mg/kg. In addition, the Max aggregation response in the assay filed under Oryctolagus cuniculus [6] was 64. The compound further displayed a concentration for a half-maximal effect (EC50) in the assay listed under Oryctolagus cuniculus [2] of 11000 nM. In assay [3], the Ratio was 0.8.

For the compound `CCCCCCCCCCCCCCCCOCC(COP(=O)([O-])OCC[N+](C)(C)C)OC(C)=O` (centres undefined) [PLATELET ACTIVATING FACTOR], the Dose in the assay filed under Rattus norvegicus is 0.00125 mg/kg. For the same compound, in the assay filed under Oryctolagus cuniculus [7], the Max aggregation response was determined as 75. Moreover, the 50% effective concentration (EC50) in the assay listed under Oryctolagus cuniculus [2] came to 19.4 nM. Also, the Ratio in assay [3] was 0.65.
